Results from patent US20240118281A1, “ANTICANCER COMPOUNDS AND USES THEREOF” (University of Florida Research Foundation, Incorporated, priority 2021, published 2024).

Columns and labels:
Format in all cases: cell-based
[1] = test system: MDA-MB-468 cells; experiment: Cell viability (MTT) assay; conditions: FIG. 1D
Procedure: MTT (3-(4,5-dimethylthiazol-2-yl)-2,5-diphenyltetrazolium bromide) (Biomatik, Wilmington, DE) assays were performed by plating 7,500 cells/well in 10% FBS/DMEM in a 96-well plate, followed by incubation at 37° C. for 24 h. Cells were then treated with vehicle or increasing concentrations of tcyDTDO, dMtcyDTDO, or dFtcyDTDO and incubated at 37° C. for 72 h. Cell media was subsequently removed from each well and MTT assays were initiated by incubating cells with 0.5 mg/ml MTT in PBS for 3 h, followed by removal of the MTT solution and addition of 100 µL of DMSO to each well for 30 min. Absorbance of the MTT formazan product was subsequently measured at 570 and 690 (reference) nm in a plate reader.

[2] = test system: ERAP1; experiment: ERAP1 retention/secretion in MDA-MB-468 cells, immunoblot; conditions: MDA-MB-468 cells
Text: The BT20, BT474, BT549, MCF7, MDA-MB-231, MDA-MB-436, MDA-MB-468, HCC1143, HCC1500, HCC1569, HCC1937, HCC1954, Hs578t, and T47D cells lines were purchased from American Type Culture Collection (ATCC) (Manassas, VA). The HCI-001 cell line was derived from an ER-/PR-/HER2- patient-derived xenograft originally isolated from a patient as described previously (DeRose Y S, et al. Nat Med 2011; 17: 1514-1520). The HCI-001/LVM2 model was derived from the HCI-001 cell line by performing two rounds of selection for liver metastasis, as described previously (Wang M, et al. Cell Death Discovery 2019; 5: 153). Cell lines were grown in Dulbecco's Modified Eagle's Medium (GE Healthcare Life Sciences, Logan, UT) containing 10% fetal bovine serum (10% FBS—DMEM) in a humidified incubator with 5% CO2 at 37° C. Cell lysates were prepared as described previously (Law B K, et al. Mol Cell Biol. 2002; 22: 8184-8198). Immunoblot analysis was performed utilizing the following antibodies purchased from Cell Signaling Technology (Beverly, MA) [Akt, #4691; P-Akt[T308], #13038; ATF4, #11815; CHOP, #2895; Cleaved Caspase 8, #9496; DR4, #42533; DR5, #8074; EGFR, #4267; GRP78, #3177; HER3, #4754; PARP, #9532; PDIA1, #3501; XBP1s, #12782], from Santa Cruz Biotechnology (Santa Cruz, CA) [Actin, sc-47778; AGR2/3, sc-376653; AGR3, sc-390940; ERO1-a, sc-100805; and ERp44, sc-393687], or from Rockland Immunochemicals, Inc. (Limerick, PA), Streptavidin-Alkaline Phosphatase conjugated (SA-AP), S000-05.
(§1) To assess protein disulfide bond-mediated oligomerization, cells were treated with DDAs for 24 h in 10% FBS-DMEM. Cells were subsequently scraped directly into the media and pelleted by centrifugation. Cells were extracted directly into boiling 2×-SDS-Sample Buffer containing 100 mM NEM and boiled for 10 min. Samples were sonicated, followed by centrifugation for 20 min at room temperature. Samples were subsequently analyzed by SDS-PAGE and immunoblot.

[3] = test system: DR4; experiment: Surface biotinylation; conditions: MDA-MB-468 cells, 2.5 μM, 24 h, amine- or thiol-reactive probes, FIG. 6D
Procedure: (§2) Cell surface proteins were labeled by incubation of cells with 1.6 mM Sulfo-NHS-SS-Biotin (Thermo Fisher Scientific, Waltham, MA) or 1.6 mM Biotin-dPEG3-Maleimide (MilliporeSigma, St. Louis, MO) in Phosphate-Buffered Saline (PBS), pH 8.0 for 30 minutes at 4° C. The cells were subsequently washed three times with PBS, and proteins were extracted in a buffer containing 1% Triton X-100 extraction buffer in the absence of reducing agents. Cell extracts were then incubated with Streptavidin-agarose beads (Thermo Fisher Scientific, Waltham, MA) for 2.5 h at 4° C. Following centrifugation, the supernatant containing non-biotinylated proteins (flow-through) was retained and boiled in 2×-SDS-Sample Buffer containing 1% 2-mercaptoethanol. Streptavidin-agarose beads bound to biotinylated proteins were washed four times with 0.1% Triton X-100 extraction buffer, followed by boiling in 2×-SDS-Sample Buffer containing 1% 2-mercaptoethanol. Samples were then analyzed by immunoblot or blotting with Streptavidin-Alkaline Phosphatase.

[4] = test system: DR5; experiment: Surface biotinylation; conditions: MDA-MB-468 cells, 2.5 μM, 24 h, amine- or thiol-reactive probes, FIG. 6D
Procedure: as §2

[5] = biological target: T1, ERp44 (Homo sapiens, UniProt Q9BS26); experiment: ERp44 disulfide bonding with client proteins, non-reducing immunoblot; set-up: endogenous in cells; host or cells: MDA-MB-468; conditions: MDA-MB-468 cells
T1 sequence (Q9BS26 30-406): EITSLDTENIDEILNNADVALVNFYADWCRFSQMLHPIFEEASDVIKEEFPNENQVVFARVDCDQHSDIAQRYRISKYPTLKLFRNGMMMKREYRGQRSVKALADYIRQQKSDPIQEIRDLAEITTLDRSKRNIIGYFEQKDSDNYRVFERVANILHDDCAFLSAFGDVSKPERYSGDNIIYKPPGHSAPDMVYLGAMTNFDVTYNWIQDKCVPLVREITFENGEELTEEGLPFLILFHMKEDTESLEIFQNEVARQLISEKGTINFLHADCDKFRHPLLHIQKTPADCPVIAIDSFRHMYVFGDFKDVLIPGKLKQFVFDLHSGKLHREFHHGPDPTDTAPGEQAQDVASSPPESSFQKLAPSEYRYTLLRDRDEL
Procedure: as §1

[6] = biological target: PDIA1 (Homo sapiens, UniProt P07237); experiment: PDIA1 disulfide bonding with client proteins, non-reducing immunoblot; set-up: endogenous in cells; host or cells: MDA-MB-468; conditions: MDA-MB-468 cells, 5 μM, 24 h, FIG. 3E
Sequence of PDIA1 (P07237 18-508): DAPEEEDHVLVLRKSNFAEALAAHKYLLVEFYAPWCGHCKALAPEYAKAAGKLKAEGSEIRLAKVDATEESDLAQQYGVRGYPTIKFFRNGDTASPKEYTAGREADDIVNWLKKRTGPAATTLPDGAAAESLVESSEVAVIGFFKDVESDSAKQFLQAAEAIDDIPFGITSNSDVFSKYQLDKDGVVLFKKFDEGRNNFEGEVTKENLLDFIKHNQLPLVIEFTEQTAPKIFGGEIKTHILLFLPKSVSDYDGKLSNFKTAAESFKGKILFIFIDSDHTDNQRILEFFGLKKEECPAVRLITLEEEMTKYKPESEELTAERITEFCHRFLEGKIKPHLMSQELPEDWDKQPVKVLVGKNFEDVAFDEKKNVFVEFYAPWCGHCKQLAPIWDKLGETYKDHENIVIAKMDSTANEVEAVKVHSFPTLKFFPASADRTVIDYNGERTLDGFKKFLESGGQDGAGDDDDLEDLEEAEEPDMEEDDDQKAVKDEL
Procedure: as §1

For `CO[C@H]1C[C@@H]2CS(=O)(=O)SC[C@H]2C[C@@H]1OC` [dMtcyDTDO, dimethoxy-tcyDTDO], the “Potency in cell viability assays relative to tcyDTDO” value [1] was “approximately two-fold greater potency than tcyDTDO”, the “ERAP1 levels in the culture medium” value ([2]; 5 μM, 24 h, FIG. 4F upper) was “dramatically increased” and the “ERAP1 secretion, statistical analysis” value ([2]; 5 μM, 24 h, N=3, FIG. 4F lower) was “induced ERAP1 secretion in a statistically significant manner”. For the same compound, the “Cellular ERAP1 levels, immunoblot” value ([2]; 24 h, FIG. 4B) was “decreased cellular ERAP1 levels”, the “Cellular ERAP1 levels, quantitation across four experiments” value ([2]; FIG. 4C) was “decreased ERAP1 levels and ERp44 binding to client proteins in a statistically significant manner” and the “Cell surface levels of DR4” value [3] was “increased cell surface levels of DR4 and DR5”. The “Cell surface levels of DR5” value [4] was “increased cell surface levels of DR4 and DR5”, the “Disulfide bonding of ERp44 with client proteins” value ([5]; 5 μM, 24 h, FIG. 3E) was “reduces disulfide bonding of ERp44 and PDIA1 with multiple proteins” and the “Monomeric levels of ERp44” value ([5]; 5 μM, 24 h, FIG. 3E) was “minimal effect on monomeric levels”. The “ERp44 binding to client proteins, quantitation across four experiments” value ([5]; FIG. 4D) was “decreased ERAP1 levels and ERp44 binding to client proteins in a statistically significant manner”, the “Disulfide bonding of PDIA1 with client proteins” value [6] was “reduces disulfide bonding of ERp44 and PDIA1 with multiple proteins” and the “Monomeric levels of PDIA1” value [6] was “minimal effect on monomeric levels”.
